Square brackets hold non-standard residues; d marks the D form. Peptide text beside a SMILES is read from it. * marks the point of attachment. ξ: configuration not given here. Pip = O=C(O)[C@@H]1CCCCN1; ξD = NC(CC(=O)O)C(=O)O; Bz = O=C(c1ccccc1)*; CH2F = FC*
How the values were obtained:
Format in all cases: cell-based
[1] = test system: caspase-8-mediated apoptotic pathway (Fas induced apoptosis); experiment: Anti-Fas induced apoptosis assay
Text: Cellular apoptosis can be induced by the binding of Fas ligand (FasL) to its receptor, CD95 (Fas). Conditions for an assay to measure the effect of compounds on the inhibition of the caspase-8-mediated apoptotic pathway can be found in WO01/42216.

TNF-alpha = experiment: Inhibition of TNF release from whole blood (LPS induced); settings: Homo sapiens, LPS 5 ng/ml, overnight, ELISA
Procedure: Human blood was freshly drawn from healthy donors and collected in vacutainers. Blood was diluted 1:2 in PBS (tissue culture, pyrogen free) in a sterile bottle and inverted to mix well. Aliquots of 0.5 ml of blood mixture were dispensed into cluster tubes in 96 well format.
Dilutions of the test compounds were prepared in RPMI by taking 100 mM DMSO stocks of the compounds and diluting 1:10 in RPMI medium in eppendorfs, to give a 10 mM stock. 1:5 serial dilutions were prepared from the stock solutions.
LPS was kept at a frozen stock (−20 degrees C.) at 1 mg/ml in PBS and then diluted to 1:10 with RPMI medium and finally diluted in the medium again 1:350. 50 μl of each test compound (first concentration was 100 μM) were added to the blood samples and then stimulated with 10 μl LPS (final concentration in the well is 5 ng/ml). The contents were gently mixed using an 8 well multi-channel pipette and incubated at 37° C. over night. At the end of the incubation time, contents were gently mixed, then spun down at 1000×g for 5 mins at 20° C. The serum supernatants were transferred to a fresh plate without disturbing the RBCs and diluted 1:2 with the diluent RD6C.
TNF-alpha levels of supernatants were assayed using the R+D systems ELISA kit, using R+D systems protocol. Samples were read at 450 nm.

[2] = test system: IL-1β secretion from peripheral blood mononuclear cells; experiment: Inhibition of IL-1β secretion from mixed population of peripheral blood mononuclear cells (PBMC); settings: human PBMC, mature IL-1β in supernatant
Text: Processing of pre-IL-1β by caspase-1 can be measured in cell culture using a variety of cell sources. Human PBMC obtained from healthy donors provides a mixed population of lymphocyte and mononuclear cells that produce a spectrum of interleukins and cytokines in response to many classes of physiological stimulators. The assay conditions used for inhibition of IL-1β secretion from mixed population of peripheral blood mononuclear cells can be found in WO01/42216.
The inhibitory potency of the compounds can be represented by an IC50 value, which is the concentration of inhibitor at which 50% of the mature IL-1β is detected in the supernatant as compared to the positive controls.

**Q.** For `O=C(O)CC(NC(=O)[C@@H]1CCCCN1C(=O)c1ccccc1)C(=O)CF` (stereo partly drawn) [Compound 3, [3S/R,(2S)]-5-Fluoro-4-oxo-3-[1-benzoyl-2-piperidinecarboxamido]-pentanoic acid] (Bz-[Pip]-[ξD]-CH2F), which IC50 [1] is on record?
**A.** < 0.05 µM

**Q.** Which results are given for `O=C(O)CC(NC(=O)[C@@H]1CCCCN1C(=O)c1ccc(-c2cccc(C(F)(F)F)c2)o1)C(=O)CF` (stereo partly drawn) [Compound 10, [3S/R,(2S)]-5-Fluoro-4-oxo-3-[1-[2-(3-trifluoromethyl-phenyl)-furan-4-carbonyl]-2-piperidinecarboxamido]-pentanoic acid]?
**A.** IC50 (TNF-alpha; exact value in brackets): 5.04 µM; IC50 (TNF-alpha; stated as bound): < 6 µM; IC50 [2]: < 0.5 µM
